From PMC8277899, “A novel RyR1-selective inhibitor prevents and rescues sudden death in mouse models of malignant hyperthermia and heat stroke” (Nature Communications, 2021)
≈ marks a conversion by molar mass, not a printed value. Where “and” joins values, the source holds several entries; their conditions need not be identical. Equal entries are not always repeated. Where two headings read alike, the source gives them in different places.

Columns and labels:
[1] = Thermodynamic solubility in solutions for injection
R2509C mice [2] = assay: Muscle force in vivo, grip force test (4-grips test), R2509C mice; parameters: species or system mouse; settings: for grip force (sheet Fig S6c): single mice
Procedure: Muscle force was measured in vivo by grip-force test. […] The force was measured before and 10 and 60 min after i.p. injection of saline or Cpd1 (10 mg/kg). Mice (8- to 12-week old) were gently held by the tails and allowed them to grasp the horizontally positioned metal bar of the Grip Strength Meter (MK308M, Muromachi Kikai, Tokyo, Japan) with their forelimbs and hindlimbs (4-grips test). Each mouse performed four trials for force measurement at every time point. The highest force value applied to the metal bar was recorded and normalized by body weight.

[3] = system: soleus muscles from WT mice; assay: Muscle force in vitro, soleus from WT mice (heat contracture, twitch, tetanus); format: cell-based, mouse; parameters: stress (stress-frequency relationship): unit not given beside the values
Procedure: Muscle contraction measurement was assessed using intact soleus muscle as follows. WT and R2509C mice (8- to 20-week old) were anesthetized with an i.p. injection of sodium pentobarbital (70 mg/kg body weight) and the soleus muscles were dissected. The isolated muscles were mounted between a force transducer (UL-100; Minebea Co., Tokyo, Japan) and a fixed hook in a chamber containing Krebs solution (140 mmol/L NaCl, 5 mmol/L KCl, 2 mmol/L CaCl2, 1 mmol/L MgCl2, 1 mmol/L NaH2PO4, 25 mmol/L NaHCO3, and 11 mmol/L glucose) bubbled with 95% O2 and 5% CO2 at 25 °C. The muscle force was recorded and analyzed by LabChart v6 (AdInstruments, Dunedin, New Zealand). The muscles were stretched to determine the length which produced maximum twitch contraction in response to field stimulation for 1 msec at supramaximal voltage. For caffeine contracture studies, muscles were exposed for 2 min to Krebs solution containing 10, 15, or 20 mM caffeine. For heat-induced contracture studies, muscles were exposed to Krebs solution warmed at 27, 35, 40, and 42 °C until basal force peaked. For twitch and tetanic contraction measurements, muscles were stimulated at 1 min intervals with 20 trains of 1, 2, 5, 10, 20, 50, 100, and 200 Hz pulses. For Cpd1 treatment, muscles were incubated with Krebs solution containing 3 µM Cpd1 15 min prior to measurements. Absolute contractile force was normalized to the maximum diameter of the muscle.

R2509C mice [4] = format: in vivo, mouse
[5] = system: FDB muscle cells from R2509C mice; assay: Mn2+ quench of fura-2 fluorescence in isolated FDB cells from R2509C mice; format: cell-based, mouse; settings: 0.1 μM
Procedure: WT and mutant mice (R2509C, 8- to 20-week old; R163C, 12- to 16-week old, and G2435R, 12- to 16-week old) were euthanized and flexor digitorum brevis (FDB) muscles were dissected and incubated with 2 mg/mL collagenase (Worthington Biochemical Co., NJ, USA) in the HEPES-Krebs solution containing 2 mg/mL bovine serum albumin for 2–3 h at 37 °C. Following incubation, single cells were separated by gentle trituration in collagenase-free HEPES-Krebs solution. Isolated single FDB cells were seeded on a laminin-coated cover slip of the 35 mm glass-bottom dish or on 96 well plate coated with Cultrex basement membrane matrix (Trevigen, Minneapolis, USA).
Isolated single FDB cells were incubated with 4 µM Cal520-AM (AAT Bioquest, CA, USA) or fura-2-AM (Thermo Fisher Scientific) dye in the HEPES-Krebs solution (140 mM NaCl, 5 mM KCl, 2 mM CaCl2, 1 mM MgCl2, 11 mM glucose, 5 mM HEPES, pH 7.4) for 30 min at 37 °C. The cells were then washed three times with the HEPES-Krebs solution to remove excess dye, and after 30 min of de-esterification, fluorescence images were obtained with a 20X (NA = 0.75) objective lens of an inverted microscope (Nikon TE2000-E Japan) equipped with the sCMOS camera (Zyla, Andor, Belfast, Northern Ireland) using Metamorph v7 (Molecular Devices). Cal520 was excited at 480 ± 15 nm, and fluorescence was measured at wavelengths of 525 ± 25 nm. […]

[6] = Pharmacokinetics after i.p. administration in mice; format: in vivo, mouse; settings: 8-times injection of 1 mg/kg at 10 min intervals
R2509C mice [7] = format: in vivo, mouse; settings: for Survival 60 min after administration (survivors/total) / mice surviving 60 min after administration: rescue
G2435R mice = assay: In vivo heat stress challenge in awake restrained G2435R mice (38 °C chamber); parameters: species or system mouse; settings: pretreatment 30 mg/kg
[8] = 1 mg/kg i.p. 8 times every 10 min
[9] = preventive, 10 mg/kg 10 min before heat stress
[10] = preventive, 10 mg/kg i.p. 10 min before isoflurane, 10 mg/kg

CCCCCCCCn1cc(C(=O)O)c(=O)c2cc3c(cc21)OCO3 [Cpd1, 6,7-(methylenedioxy)-1-octyl-4-quinolone-3-carboxylic acid]
water solubility ([1]; free acid): virtually water insoluble
solubility in normal saline compared to dantrolene ([1]; normal saline): 34 fold
solubility at 48 h ([1]; normal saline (0.9% NaCl), 25 °C, saline or isotonic, thermodynamic from solid): 849 ± 58 µg/mL (≈ 2460 µM)
grip force (sheet Fig S6c) (R2509C mice [2]; 10 min after Cpd1): 9.25 and 10 and 6.39 and 8.47 and 6.45 and 7.53
grip force (sheet Fig S6c) (R2509C mice [2]; 60 min after Cpd1): 10.04 and 12.86 and 9.79 and 9.69 and 9.84 and 10.9
grip force (sheet Fig S6c) (R2509C mice [2]; Pre (before administration), Cpd1 group): 10.64 and 13.19 and 10.54 and 8.58 and 8.65 and 10.63
muscle weakness in grip strength test (R2509C mice [2]; R2509C mice, after administration of Cpd1): muscle weakness was also observed in 10 min but recovered within 60 min
twitch tension ([3]; 3 μM Cpd1): 0.08926 and 0.06376 and 0.0706 and 0.1008 and 0.09044
stress (stress-frequency relationship) ([3]; 3 μM Cpd1, 1 Hz): 0.07934 and 0.05313 and 0.0706 and 0.09238 and 0.1028
stress (stress-frequency relationship) ([3]; 3 μM Cpd1, 2 Hz): 0.07934 and 0.05313 and 0.0706 and 0.09238 and 0.1028
stress (stress-frequency relationship) ([3]; 3 μM Cpd1, 10 Hz): 0.08926 and 0.05313 and 0.0706 and 0.09238 and 0.09866
stress (stress-frequency relationship) ([3]; 3 μM Cpd1, 50 Hz): 0.7934 and 0.7651 and 0.5531 and 0.7307 and 0.4851
effect on rise in rectal temperature (R2509C mice [4]; 1 mg/kg i.p. 8 times at 10 min intervals, heat stress): successfully prevented rise in the rectal temperature
Survival 90 min after heat stress challenge (survivors/total) (R2509C mice [4]; [8]): all the mice survived
preventive effect in heat stress experiments (R2509C mice [4]; 3 mg/kg, preliminary experiments): no effect
effect on rate of temperature rise (R2509C mice [4]; preventive, 10 mg/kg): slowed the rate of temperature rise
Survival 120 min after heat stress challenge (survivors/total) (R2509C mice [4]; [9]): 0 out of 4 and 0/4
Time to death from start of heat stress challenge (R2509C mice [4]; [9]): 115.67 min and 109.33 min and 83.5 min and 85 min
Survival 60 min after administration (survivors/total) (R2509C mice [4]; rescue, 3 mg/kg i.p. at 38 °C): 5/6
Survival 60 min after administration (survivors/total) (R2509C mice [4]; rescue, 3 mg/kg i.p. at 39 °C, 3 mg/kg): 3/5 and 3 out of 5
Survival 60 min after administration (survivors/total) (R2509C mice [4]; rescue, 10 mg/kg i.p. at 38 °C): 6/6
Survival 60 min after administration (survivors/total) (R2509C mice [4]; rescue, 10 mg/kg i.p. at 39 °C, 10 mg/kg): 10/11 and 10 out of 11
effect on continued rise in body temperature (R2509C mice [4]; rescue, 3 and 10 mg/kg i.p. at 38 °C): strongly suppressed
effect on rate of Mn2+ quench [5]: no effect
plasma concentration ([6]; female, 10 min): 70 ng/mL and 90 ng/mL
plasma concentration ([6]; male, 5 min): 610 ng/mL and 360 ng/mL
effect on rise in rectal temperature (R2509C mice [7]; 1 mg/kg i.p. 8 times at 10 min intervals, isoflurane): successfully prevented rise in the rectal temperature
Survival 90 min after isoflurane challenge (survivors/total) (R2509C mice [7]; [8]): all the mice survived
effect of second and third administrations on rectal temperature (R2509C mice [7]; 3 mg/kg i.p. each time rectal temperature reached 39 °C, isoflurane): successfully decreased the rectal temperature
effect on rise in rectal temperature (R2509C mice [7]; preventive, 3 mg/kg i.p.): did not prevent rise in rectal temperature
Survival after 90 min of anesthesia (survivors/total) (R2509C mice [7]; preventive, 3 mg/kg i.p. 10 min before isoflurane, 3 mg/kg): 1 out of 6
Survival after 90 min of anesthesia (survivors/total) (R2509C mice [7]; preventive, 3 mg/kg i.p. 10 min before isoflurane, listed as Cpd 1, 3 mg/kg): 1/6
Time to death (R2509C mice [7]; preventive, 3 mg/kg i.p., n = 5): 47 ± 15 min
effect on rise in rectal temperature (R2509C mice [7]; preventive, 10 mg/kg i.p.): successfully prevented any rise in rectal temperature
Maximum rectal temperature (R2509C mice [7]; [10]): 36.1797 °C and 35.7812 °C and 35.4844 °C and 36.3594 °C and 36.1344 °C and 36.1406 °C
Survival after 90 min of anesthesia (survivors/total) (R2509C mice [7]; [10]): All the treated mice survived
Survival 60 min after administration (survivors/total) (R2509C mice [7]; 3 mg/kg i.p. at 39 °C): 6/10
mice surviving 60 min after administration (R2509C mice [7]; 3 mg/kg i.p. at 39 °C): 60%
Survival 60 min after administration (survivors/total) (R2509C mice [7]; 10 mg/kg i.p. at 39 °C): 8/8
mice surviving 60 min after administration (R2509C mice [7]; 10 mg/kg i.p. at 39 °C): 100%
effect on rise in rectal temperature (G2435R mice): greatly slowed the rise in rectal temperature
